Read-outs that look alike come from different tables or passages of the source.
Legend:
[1] = In vivo test of oral powder for constitution in beagle dogs (Example 10); conditions: male, dog, plasma, Fed, 90 mgA Drug 1 oral OPC
Protocol: (§1) Dispersion 17, consisting of 50:50 Drug 1:HPMCA Polymer 10, was dosed in male beagle dogs as an oral powder for constitution (OPC), by suspending the dispersion in a solution containing 0.5 wt % hydroxypropyl cellulose METHOCEL® (from Dow Chemical Co.), as follows. First, 7.5 g of METHOCEL® was weighed out and added slowly to approximately 490 ml of water at 90-100° C. to form a METHOCEL® suspension. After all the METHOCEL® was added, 1000 mL of cool/room temperature water was added to the suspension, which was then placed in an ice water bath. When all of the METHOCEL® had dissolved, 2.55 g of polyoxyethylene 20 sorbitan monooleate (TWEEN 80) were added and the mixture stirred until the TWEEN 80 had dissolved, thus forming a stock suspension solution.
To form the OPC, sufficient quantity of the test composition to result in a 90 mgA amount of Drug 1 was accurately weighed and placed into a mortar. A 20 mL quantity of the stock suspension solution was added to the mortar and the test composition was mixed with a pestle. Additional METHOCEL® suspension was added gradually with mixing until a total of 400 mL of the stock suspension solution had been added to the mortar. The suspension was then transferred to a flask, thus forming the OPC. In addition, an OPC containing 90 mgA of amorphous Drug 1 was prepared using the same procedure.
Six male beagle dogs were each dosed with the OPC. […]

[2] = In vivo test of oral powder for constitution in beagle dogs (Example 2); conditions: male, dog, plasma, Fed, 90 mgA Drug 1 oral OPC
Protocol: as §1, with “Dispersions 1 and 4 were used as oral powders for constitution (OPC) for evaluating the performance” for “Dispersion 17, consisting”, “the dispersions in in vivo tests using male beagle dogs. The OPC” for “50:50 Drug 1:HPMCA Polymer 10,”, “dosed” for “dosed in male beagle dogs”, “a suspension” for “an oral powder for constitution (OPC), by suspending the dispersion”, “Co.), and was prepared” for “Co.),”
To form the OPC, sufficient quantity of the test composition to result in a 90 mgA amount of Drug 1 was accurately weighed and placed into a mortar. (“mgA” refers to mg of active drug.) A 20 mL quantity of the stock suspension solution was added to the mortar and the test composition was mixed with a pestle. Additional METHOCEL® suspension was added gradually with mixing until a total of 400 mL of the stock suspension solution had been added to the mortar. The suspension was then transferred to a flask, thus forming the OPC. This process was repeated for each of Dispersions 1 and 4. […]

[3] = In vitro membrane permeation test, Drug 6 (Example 7); assay type: physicochemical; conditions: Drug 6, feed solution 0.5% NaTC/POPC, permeate 60 wt % decanol in decane
Protocol: Dispersion 19 (75:25 Drug 6:Polymer 17) was evaluated in vitro using the membrane permeation test described for Example 6, except that the permeate solution consisted of 60 wt % decanol in decane. The feed solution was made using MFD solution (0.5% NaTC/POPC). The concentration of Drug 6 in the feed solution would have been 500 μg/mL (354 μgA/mL), if all of the drug had dissolved.
As a control, crystalline Drug 6 alone was used. The concentration of drug added would have been 354 μgA/mL Drug 6, if all of the drug had dissolved.
The maximum flux of drug across the membrane (in units of μg/cm^2-min) was determined from the data by estimating the tangent to the concentration versus time curve at time 0.

[4] = Microcentrifuge dissolution test in PBS with NaTC/POPC, Drug 6 (Examples 8 and 12); assay type: physicochemical; conditions: 37° C., 0 to 90 minutes
Protocol: Dispersion 19 was also evaluated in a microcentrifuge dissolution test using the following procedures. For this test, 1.7 mg of Dispersion 19 and 1.27 mg of Crystalline Drug 6 was added to respective microcentrifuge tubes. The tubes were placed in a 37° C. temperature-controlled bath, and 1.8 mL phosphate buffered saline (PBS) at pH 6.5 and 290 mOsm/kg containing 7.3 mM sodium taurocholic acid and 1.4 mM of 1-palmitoyl-2-oleyl-sn-glycero-3-phosphocholine was added to each tube. The concentration of Drug 6 would have been […] if all of the drug had dissolved. The samples were quickly mixed using a vortex mixer for about 60 seconds. The samples were centrifuged at 13,000 G at 37° C. for 1 minute. The resulting supernatant solutions were then sampled and diluted 1:6 (by volume) with methanol and then analyzed by high-performance liquid chromatography (HPLC). The contents of the tubes were mixed on the vortex mixer and allowed to stand undisturbed at 37° C. until the next sample was taken. Samples were collected at 4, 10, 20, 40, 90, and 1200 minutes.
The concentrations of Drug 6 obtained in these samples were used to determine the values of the maximum drug concentration between 0 and 90 minutes (MDC90) and the area under the curve from 0 to 90 minutes (AUC90).
A physical mixture of 75 wt % Drug 6 and 25 wt % HPMCA Polymer 16 was evaluated using the microcentrifuge dissolution test described in Example 8. The concentration of Drug 6 would have been 500 μgA/mL if all of the drug had dissolved. A control consisting of a physical mixture of 75 wt % Drug 6 and 25 wt % HPMC (Dow E3 Prem LV) was tested in the same test.

[5] = physchem; conditions: pH 6, aqueous buffer
[6] = not told
[7] = Table 16, PBS pH 6.5 with 7.3 mM NaTC/1.4 mM POPC
[8] = Table 20, PBS pH 6.5 with NaTC/POPC

CCOC(=O)N1c2ccc(C(F)(F)F)cc2[C@@H](N(Cc2cc(C(F)(F)F)cc(C(F)(F)F)c2)C(=O)OC)C[C@H]1CC [Amorphous Drug 1, [2R,4S]4-[(3,5-bis-trifluoromethyl-benzyl)-methoxycarbonyl-amino]-2-ethyl-6-trifluoromethyl-3,4-dihydro-2H-quinoline-1-carboxylic acid ethyl ester]
Cmax [1]: 190 ± 55 ng/mL
AUC(0-t) ([1]; read-out: AUC(0-12)): 640 ± 240 ng·h/mL
Cmax [2]: 190 ± 55 ng/mL
AUC(0-t) ([2]; read-out: AUC(0-12)): 640 ± 240 ng·h/mL

CCCc1nn(C)c2c(=O)[nH]c(-c3cc(S(=O)(=O)N4CCN(C)CC4)ccc3OCC)nc12.O=C(O)CC(O)(CC(=O)O)C(=O)O [Crystalline Drug 6, 1-[4-ethoxy-3-(6,7-dihydro-1-methyl-7-oxo-3-propyl-1H-pyrazolo[4,3-d]pyrimidin-5-yl)phenylsulphonyl]-4-methylpiperazine citrate salt]
Maximum Drug Flux [3]: 3.8 μg/cm^2-min
AUC90 [4, 7]: 7,000 min * μgA/mL
MDC,90 [4, 7]: 98 μgA/mL
AUC90 [4, 8]: 7,000 min * μgA/mL
MDC,90 [4, 8]: 98 μgA/mL

CCCc1nn(C)c2c(=O)[nH]c(-c3cc(S(=O)(=O)N4CCN(C)CC4)ccc3OCC)nc12.O=C(O)CC(O)(CC(=O)O)C(=O)O [Drug 6, 1-[4-ethoxy-3-(6,7-dihydro-1-methyl-7-oxo-3-propyl-1H-pyrazolo[4,3-d]pyrimidin-5-yl)phenylsulphonyl]-4-methylpiperazine citrate salt]
solubility [5]: ~20 µg/mL

[2R,4S]4-[(3,5-bis-trifluoromethyl-benzyl)-methoxycarbonyl-amino]-2-ethyl-6-trifluoromethyl-3,4-dihydro-2H-quinoline-1-carboxylic acid ethyl ester [Crystalline Drug 1]
Maximum Drug Flux [6]: 0.16 μg/cm^2-min

Source: patent publication US8940800B2, “Pharmaceutical compositions with enhanced performance” (Bend Research, Inc., priority 2004, dated 2015)
